Data from patent US10836770B2, “Imidazopyridazine compounds useful as modulators of IL-12, IL-23 and/or INF alpha responses” (priority 2016, dated 2020).

What was measured:
[1] = target: T1, recombinantly expressed His-tagged protein corresponding to amino acids 575-869 of human Tyk2 (Homo sapiens, UniProt P29597); test: Probe displacement assay (scintillation proximity, radiolabeled probe); format: binding
T1 construct: made in house
Description: The probe displacement assay is conducted as follows: In a […], test compounds along with recombinantly expressed His-tagged protein corresponding to amino acids 575-869 of human Tyk2 (sequence shown below) at 2.5 nM, 40 nM ((R)—N-(1-(3-(8-methyl-5-(methylamino)-8H-imidazo[4,5-d]thiazolo[5,4-b]pyridin-2-yl)phenyl)ethyl)-2-([^3H]methylsulfonyl)benzamide) (preparation described below) and 80 μg/mL Copper His-Tag scintillation proximity assay beads (Perkin Elmer, Catalog #RPNQ0095) in 50 mM HEPES, pH 7.5, containing 100 μg/mL bovine serum albumin and 5% DMSO were incubated for 30 minutes at room temperature. […] The IC50 value is defined as the concentration of test compound required to inhibit radiolabeled probe binding by 50%.
Protein Sequence of recombinant Hig-tagged Tyk2 (575-869):
The preparation of radiolabeled probe, (R)—N-(1-(3-(8-methyl-5-(methylamino)-8H-imidazo[4,5-d]thiazolo[5,4-b]pyridin-2-yl)phenyl)ethyl)-2-([^3H]methylsulfonyl)benzamide, was performed as described below: […]

[2] = tested on: IL-23-stimulated Kit225 T cells with STAT-dependent luciferase reporter; test: Kit225 T cell assay, IL-23 stimulated STAT-dependent luciferase reporter; format: cell-based, human; conditions: Homo sapiens, KIT225, read-out: IL-23 Kit225 Reporter, LE (IC50, uM)
Description: (§1) Kit225 T cells with a stably-integrated STAT-dependent luciferase reporter were plated in RPMI (GIBCO) containing 10% heat-inactivated FBS (GIBCO) and 100 U/mL PenStrep (GIBCO). The cells were then stimulated with either 20 ng/mL human recombinant IL-23 or 200 U/mL human recombinant IFNα (PBL InterferonSource) for 5-6 hours. Luciferase expression was measured using the STEADY-GLO® Luciferase Assay System (PROMEGA®) according to the manufacturer's instructions.

[3] = tested on: IFNα-stimulated Kit225 T cells with STAT-dependent luciferase reporter; test: Kit225 T cell assay, IFNα stimulated STAT-dependent luciferase reporter; format: cell-based, human; conditions: Homo sapiens, KIT225, read-out: IFNa Kit225 Reporter, LE (IC50, uM)
Description: as §1

T1 sequence (P29597 with tags, fused parts or gaps): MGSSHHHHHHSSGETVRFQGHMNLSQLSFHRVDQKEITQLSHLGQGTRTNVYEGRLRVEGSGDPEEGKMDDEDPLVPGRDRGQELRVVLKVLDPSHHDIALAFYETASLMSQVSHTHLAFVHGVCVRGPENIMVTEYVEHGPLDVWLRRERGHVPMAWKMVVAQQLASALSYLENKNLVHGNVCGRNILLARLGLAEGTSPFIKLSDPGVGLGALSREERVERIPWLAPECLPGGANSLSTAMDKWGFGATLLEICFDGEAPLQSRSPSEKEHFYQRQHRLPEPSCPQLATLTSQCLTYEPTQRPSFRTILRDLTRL

Question: With CNc1cc(Nc2sc(C)nc2C(=O)NC(C)C)nn2c(C(=O)NC3CC3)cnc12 [Example 85] as the compound, how does the EC50 [1] read?
Answer: 26.7 nM

Question: And the IC50 [2]?
Answer: 0.256 µM

Question: What about the IC50 [3] of the same compound?
Answer: 0.224 µM
